Broadly, the Ki is the equilibrium dissociation constant of an inhibitor or competing ligand from its target. What is called EC50 is the concentration that produces a half-maximal response.

Where two headings read alike, the source gives them in different places.

Test [1] addresses T1, human 5-hydroxytryptamine-2C (h5-HT2C) receptor (Homo sapiens, UniProt P28335).
T1 construct: expressed in transfected cells; host or cells: CHO (Chinese Hamster Ovary) cells; membranes
T1 sequence (P28335 33-458): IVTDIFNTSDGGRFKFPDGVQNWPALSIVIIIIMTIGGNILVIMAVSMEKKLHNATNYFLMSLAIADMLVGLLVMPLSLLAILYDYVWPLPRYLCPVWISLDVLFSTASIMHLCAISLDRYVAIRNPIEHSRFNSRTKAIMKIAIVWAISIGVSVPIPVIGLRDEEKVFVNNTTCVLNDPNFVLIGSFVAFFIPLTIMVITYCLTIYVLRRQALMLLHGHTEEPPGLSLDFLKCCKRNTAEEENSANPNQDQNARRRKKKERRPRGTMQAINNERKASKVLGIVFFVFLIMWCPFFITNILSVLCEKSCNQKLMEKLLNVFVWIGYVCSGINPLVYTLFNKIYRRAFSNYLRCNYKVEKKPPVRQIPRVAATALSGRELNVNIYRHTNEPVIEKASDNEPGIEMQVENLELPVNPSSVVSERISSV
Kind of test: [125I]DOI binding to membranes of CHO cells expressing the human 5-HT2C receptor. Particulars: [125I]DOI radioligand, CHO cell membranes, room temperature 60 min.

The target of another test is T2, human 5-HT2C receptor (Homo sapiens, UniProt P28335).
T2 sequence (P28335 33-458): T1 sequence (P28335 33-458)
The test is described as follows: 5-HT2C receptor-stimulated calcium mobilization (FLIPR) in CHO cells.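 As to all read-outs here: Fluo-3-AM fluorescence read on FLIPR every 1 s, agonist added after 10 baseline reads, response taken as peak minus lowest raw fluorescence count.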 In kind it is cell-based. The conditions noted are these: for Emax: CHO; for EC50: calcium mobilization, CHO cells stably expressing human 5-HT2C. A general note: A change in cytosolic calcium serves as a functional read-out for many receptors and channels.

Where [2] appears, read: percentage of the response observed with a maximally effective concentration of 5-HT, read-out: 5-HT2C Function Emax (%).
[3] abbreviates: percentage of the response observed with a maximally effective concentration of 5-HT.

On to `COc1cc2c(c(-c3cc(Cl)ccc3Cl)c1)OC(CN)C2` (single isomer, unassigned; (+)) [Example 368, (+)-{[7-(2,5-dichlorophenyl)-5-methoxy-2,3-dihydro-1-benzofuran-2-yl]methyl}amine], for which the Ki in test [1] (read-out: 5-HT2C Affinity Ki) came to 1.4 nM. Further, the Emax on human 5-HT2C receptor (setting [2]) is 90%. Moreover, the EC50 at human 5-HT2C receptor (read-out: 5-HT2C Function EC50) turned out to be 4 nM.
For the compound `NCC1Cc2cc(F)cc(-c3c(F)cccc3F)c2O1` (racemic) [Example 226, (±)-{[7-(2,6-difluorophenyl)-5-fluoro-2,3-dihydro-1-benzofuran-2-yl]methyl}amine], the Ki in test [1] (read-out: 5-HT2C Affinity Ki) was 1.3 nM. Also, on human 5-HT2C receptor (setting [2]), the Emax came to 90%. For the same compound, the EC50 on human 5-HT2C receptor (read-out: 5-HT2C Function EC50) was determined as 30 nM.
Regarding `NCC1Cc2cc(F)cc(-c3c(Cl)cccc3Cl)c2O1` (single isomer, unassigned; (+)) [Example 551, (+)-{[7-(2,6 dichlorophenyl)-5-fluoro-2,3-dihydro-1-benzofuran-2-yl]methyl}amine], the Ki in test [1] (read-out: 5-HT2C Affinity Ki) worked out at 0.55 nM. Also, at human 5-HT2C receptor (setting [2]), the Emax is 90%. The EC50 at human 5-HT2C receptor (read-out: 5-HT2C Function EC50) worked out at 17 nM.
On the same counts, the results for `NCC1Cc2cc(F)cc(-c3ccccn3)c2O1` (racemic) [Example 205, (±)-[(5-fluoro-7-pyridin-2-yl-2,3-dihydro-1-benzofuran-2-yl)methyl]amine] are 3 nM, 80% and 280 nM.
With `NCC1Cc2cccc(C3CCCC3)c2O1` (single isomer, unassigned; (-)) [Example 9, (−)-(7-cyclopentyl-2,3-dihydro-1-benzofuran-2-yl)methylamine], the Ki in test [1] (read-out: 5-HT2C Affinity Ki) was found to be 10 nM. Also, the EC50 on human 5-HT2C receptor (read-out: 5-HT2C Function EC50) is 194 nM. Moreover, the “5-HT2C Function Emax (%)” value on human 5-HT2C receptor (setting [3]) stood at 85%.
On the same counts, the results for `NCC1Cc2cccc(Cc3ccccc3)c2O1` (single isomer, unassigned; (-)) [Example 17, (−)-1-(7-benzyl-2,3-dihydro-1-benzofuran-2-yl)methanamine] are 66 nM, 100 nM and 70%.
`COc1ccc(OC)c(-c2cccc3c2OC(CN)C3)c1` (racemic) [Example 162, (±)-{[7-(2,5-dimethoxyphenyl)-2,3-dihydro-1-benzofuran-2-yl]methyl}amine]: the Ki in test [1] (read-out: 5-HT2C Affinity Ki) amounted to 13 nM. Also, on human 5-HT2C receptor (setting [2]), the Emax amounted to 100%. For the same compound, on human 5-HT2C receptor (read-out: 5-HT2C Function EC50), the 50% effective concentration (EC50) was found to be 24 nM.
Turning to `CNCC1Cc2cccc(-c3ccc(Cl)cc3)c2O1` (racemic) [Example 420, (±)-[(N-methyl-1-[7-(4-chlorophenyl)-2,3-dihydro-1-benzofuran-2-yl]methanamine], the Ki in test [1] (read-out: 5-HT2C Affinity Ki) is 7 nM. On human 5-HT2C receptor (setting [2]), the Emax is 80%. Also, the EC50 at human 5-HT2C receptor (read-out: 5-HT2C Function EC50) came out at 504 nM.
With `NCC1Cc2cccc(C3CCCC3)c2O1` (single isomer, unassigned; (+)) [Example 10, (+)-(7-cyclopentyl-2,3-dihydro-1-benzofuran-2-yl)methylamine], the Ki in test [1] (read-out: 5-HT2C Affinity Ki) was determined as 42 nM. Also, the EC50 on human 5-HT2C receptor (read-out: 5-HT2C Function EC50) stood at 179 nM. The “5-HT2C Function Emax (%)” value on human 5-HT2C receptor (setting [3]) is on record as 60%.
As for `CNCC1Cc2cc(C)cc(-c3cc(Cl)ccc3Cl)c2O1` (single isomer, unassigned; (+)) [Example 487, (+)-{[7-(2,5-dichlorophenyl)-5-methyl-2,3-dihydro-1-benzofuran-2-yl]methyl}methylamine], the Ki in test [1] (read-out: 5-HT2C Affinity Ki) was found to be 0.06 nM. Moreover, on human 5-HT2C receptor (setting [2]), the Emax was found to be 100%. For the same compound, the EC50 on human 5-HT2C receptor (read-out: 5-HT2C Function EC50) is 3 nM.
On the same counts, the results for `Cc1cc2c(c(-c3ccc(Cl)cc3Cl)c1)OC(CN)C2` (single isomer, unassigned; (-)) [Example 298, (−)-{[7-(2,4-dichlorophenyl)-5-methyl-2,3-dihydro-1-benzofuran-2-yl]methyl}amine] are 11 nM, 90% and 30 nM.
For `CNCC1Cc2cccc(-c3cccc(Cl)c3)c2O1` (racemic) [Example 416, (±)-[(N-methyl-1-[7-(3-chlorophenyl)-2,3-dihydro-1-benzofuran-2-yl]methanamine], the Ki in test [1] (read-out: 5-HT2C Affinity Ki) amounted to 1.6 nM. Moreover, on human 5-HT2C receptor (setting [2]), the Emax stood at 70%. Besides, the EC50 on human 5-HT2C receptor (read-out: 5-HT2C Function EC50) turned out to be 467 nM.
On the same counts, the results for `CNCC1Cc2cc(OC)cc(-c3ccccc3C)c2O1` (racemic) [Example 493, (±)-{[7-(2-methylphenyl)-5-methoxy-2,3-dihydro-1-benzofuran-2-yl]methyl}methylamine] are 11 nM, 90% and 8 nM.
On the same counts, the results for `NCC1Cc2cc(C(F)(F)F)cc(-c3ccoc3)c2O1` (racemic) [Example 341, (±)-{[7-(3-furyl)-5-(trifluoromethyl)-2,3-dihydro-1-benzofuran-2-yl]methyl}amine] are 36 nM, 90% and 231 nM.
On the same counts, the results for `COc1ccc(-c2cc(C(F)(F)F)cc3c2OC(CN)C3)cc1` (racemic) [Example 326, (±)-{[5-(trifluoromethyl)-7-(4-methoxyphenyl)-2,3-dihydro-1-benzofuran-2-yl]methyl}amine] are 34 nM, 80% and 228 nM.
`NCC1Cc2cc(F)cc(-c3ccccc3C(F)(F)F)c2O1` (single isomer, unassigned; (-)) [Example 151, (−)-1-{5-fluoro-7-[2-(trifluoromethyl)phenyl]-2,3-dihydro-1-benzofuran-2-yl}methanamine]: the Ki in test [1] (read-out: 5-HT2C Affinity Ki) was found to be 1.1 nM. Further, the EC50 at human 5-HT2C receptor (read-out: 5-HT2C Function EC50) worked out at 27 nM. The “5-HT2C Function Emax (%)” value on human 5-HT2C receptor (setting [3]) worked out at 100%.
`NCC1Cc2cccc(-c3ccc(Cl)cc3)c2O1` (single isomer, unassigned; (-)) [Example 78, (−)-1-[7-(4-chlorophenyl)-2,3-dihydro-1-benzofuran-2-yl]methanamine]: the Ki in test [1] (read-out: 5-HT2C Affinity Ki) worked out at 41 nM. Further, the EC50 on human 5-HT2C receptor (read-out: 5-HT2C Function EC50) came out at 161 nM. For the same compound, on human 5-HT2C receptor (setting [3]), the “5-HT2C Function Emax (%)” value was 90%.
Turning to `Cc1ccc(C)c(-c2cccc3c2OC(CN)C3)c1` (racemic) [Example 161, (±)-{[7-(2,5-dimethylphenyl)-2,3-dihydro-1-benzofuran-2-yl]methyl}amine], the Ki in test [1] (read-out: 5-HT2C Affinity Ki) came out at 8 nM. The Emax at human 5-HT2C receptor (setting [2]) was determined as 90%. Moreover, the EC50 at human 5-HT2C receptor (read-out: 5-HT2C Function EC50) came out at 32 nM.
With `Cc1cc(Cl)ccc1-c1cccc2c1OC(CN)C2` (single isomer, unassigned; (+)) [Example 158, (+)-{[7-(4-chloro-2-methylphenyl)-2,3-dihydro-1-benzofuran-2-yl]methyl}amine], the Ki in test [1] (read-out: 5-HT2C Affinity Ki) came out at 1.1 nM. Also, at human 5-HT2C receptor (setting [2]), the Emax turned out to be 100%. Besides, the EC50 at human 5-HT2C receptor (read-out: 5-HT2C Function EC50) stood at 42 nM.
On to `COc1cc2c(c(-c3ccccc3Cl)c1)OC(CN)C2` (racemic) [Example 357, (±)-{[7-(2-chlorophenyl)-5-methoxy-2,3-dihydro-1-benzofuran-2-yl]methyl}amine], for which the Ki in test [1] (5-HT2C Affinity Ki (nM)) turned out to be 18 nM. Besides, the 50% effective concentration (EC50) at human 5-HT2C receptor (5-HT2C Function EC50 (nM)) was found to be 2 nM. Also, the Emax at human 5-HT2C receptor (read-out: 5-HT2C Function Emax (%), percentage of the response observed with a maximally effective concentration of 5-HT) amounted to 100%.
Take `Cc1ccccc1-c1cc(F)c(F)c2c1OC(CN)C2` (racemic) [Example 110, (±)-1-[4,5-difluoro-7-(2-methylphenyl)-2,3-dihydro-1-benzofuran-2-yl]methanamine]: the Ki in test [1] (read-out: 5-HT2C Affinity Ki) turned out to be 9 nM. Also, the Emax on human 5-HT2C receptor (setting [2]) is 70%. At human 5-HT2C receptor (read-out: 5-HT2C Function EC50), the EC50 is 1000 nM.
In the case of `NCC1Cc2cc(C(F)(F)F)cc(-c3ccccc3F)c2O1` (racemic) [Example 313, (±)-{[5-(trifluoromethyl)-7-(2-fluorophenyl)-2,3-dihydro-1-benzofuran-2-yl]methyl}amine], the Ki in test [1] (read-out: 5-HT2C Affinity Ki) amounted to 164 nM. In addition, the Emax at human 5-HT2C receptor (setting [2]) turned out to be 90%. The EC50 at human 5-HT2C receptor (read-out: 5-HT2C Function EC50) came out at 70 nM.
On the same counts, the results for `NCC1Cc2cccc(-c3ccsc3)c2O1` (racemic) [Example 44, (±)-1-(7-thien-3-yl-2,3-dihydro-1-benzofuran-2-yl)methanamine] are 3 nM, 100% and 7 nM.
In the case of `NCC1Cc2cc(F)cc(-c3ccc(F)cc3)c2O1` (racemic) [Example 199, (±)-{[5-fluoro-7-(4-fluorophenyl)-2,3-dihydro-1-benzofuran-2-yl]methyl}amine], the Ki in test [1] (read-out: 5-HT2C Affinity Ki) was 19 nM. In addition, the Emax at human 5-HT2C receptor (setting [2]) amounted to 80%. Also, the EC50 at human 5-HT2C receptor (read-out: 5-HT2C Function EC50) was 416 nM.
On the same counts, the results for `NCC1Cc2cccc(-c3ccc(C(F)(F)F)cc3)c2O1` (racemic) [Example 82, (±)-1 {7-[4-(trifluoromethyl)phenyl]-2,3-dihydro-1-benzofuran-2-yl}methanamine] are 15 nM, 95% and 275 nM.
On the same counts, the results for `NCC1Cc2cc(Cl)cc(-c3cccc(F)c3F)c2O1` (racemic) [Example 244, (±)-{[5-chloro-7-(2,3-difluorophenyl)-2,3-dihydro-1-benzofuran-2-yl]methyl}amine] are 0.74 nM, 90% and 52 nM.
On the same counts, the results for `Cc1ccc(-c2cc(C)cc3c2OC(CN)C3)cc1` (racemic) [Example 290, (±)-{[7-(4-methylphenyl)-5-methyl-2,3-dihydro-1-benzofuran-2-yl]methyl}amine] are 1.7 nM, 80% and 58 nM.

The values are drawn from patent US7435837B2, “Dihydrobenzofuranyl alkanamine derivatives and methods for using same” (Wyeth, priority 2003, dated 2008).
